Reference: patent US11642548B2, “Sterilization method and sterilization apparatus” (Ushio Denki Kabushiki Kaisha, priority 2017, dated 2023)

Tests used:
[1] = Test Example 3: odor of amino acid aqueous solutions before and after irradiation of ultraviolet at a peak wavelength of 222 nm (sensory evaluation); format: physicochemical; details: for Comparison with smells in Test example 1: odor after 222 nm UV irradiation of the solution compared with odor of UV-irradiated human hand, sensory evaluation by six assessors; for Odor before irradiation: 3 mL aqueous solution of amino acid in petri dish, before ultraviolet irradiation
Procedure: Looking at amino acids that form the proteins in the epidermis, then changes in the odor before and after irradiation of ultraviolet at a peak wavelength of 222 nm with respect to the following eighteen types of amino acids are examined More specifically, a 3 mL aqueous solution of each type of amino acid was put in a φ40 petri dish, and using the same light source as that of the ultraviolet irradiation apparatus 1, irradiated with ultraviolet with an irradiance of 3.8 mW/cm^2 for an irradiation period of 30 seconds. The petri dish and the light source were spaced apart by 8 cm. The eighteen types of amino acids were: Cystine, glutamic acid, leucine, arginine, serine, threonine, aspartic acid, proline, glycine, valine, alanine, phenylalanine, isoleucine, tyrosine, lysine, histidine, methionine, and tryptophan. These eighteen amino acids are all known as the substances that form proteins contained in the epidermis.
The comparison with the odor in Test Example 1 was made by sensory evaluation performed by the six assessors M1, M2, M3, M4, M5, and M6.

[2] = test system: region irradiated with ultraviolet (palm of the right hand); test: Test Example 4: application of amino acid aqueous solution to palm irradiated with 222 nm ultraviolet, assessment of change in smell; format: in vivo, human; details: 1 mM aqueous solution sprayed and rubbed in on palm irradiated with 222 nm UV, 3.8 mW/cm^2, 30 seconds, smell of burning hair before application, Assessor M1, other five gave the same results
Description: Similarly to the method of Test Example 1, using the ultraviolet irradiation apparatus 1 shown in FIG. 1, the palm of the right hand of each of six assessors M1, M2, M3, M4, M5, and M6 was irradiated with ultraviolet, with a peak wavelength at 222 nm and an irradiance of 3.8 mW/cm^2 for an irradiation period of 30 seconds.
After that, each aqueous solution of the eighteen types of amino acids used in Test Example 3 (cystine, glutamic acid, leucine, arginine, serine, threonine, aspartic acid, proline, glycine, valine, alanine, phenylalanine, isoleucine, tyrosine, lysine, histidine, methionine, and tryptophan) was applied to the region irradiated with ultraviolet (molar concentration: 1 mM). More specifically, each aqueous solution was sprayed and rubbed in with the palm of the hand. This was followed by an assessment of any changes in the smell before and after application of each aqueous solution.

| SMILES | Comparison with smells in Test example 1 [1] | Smell after application of amino acid solution [2] | Odor before irradiation [1] | further results |
| --- | --- | --- | --- | --- |
| C[C@H](N)C(=O)O [Alanine, alanine] | Different | – | – | – |
| N=C(N)NCCC[C@H](N)C(=O)O [Arginine, arginine] | Different | Smell disappeared | – | Smell after application of amino acid solution ([2]; listed as arginine): no odor was detected |
| N[C@@H](CC(=O)O)C(=O)O [Aspartic acid, aspartic acid] | Different | Smell disappeared | No smell | Smell after application of amino acid solution ([2]; listed as aspartic acid): no odor was detected |
| N[C@@H](CSSC[C@H](N)C(=O)O)C(=O)O [Cystine] | Different | – | No smell | – |
| N[C@@H](CCC(=O)O)C(=O)O [Glutamic acid, glutamic acid] | Different | Smell disappeared | Slight smell | Smell after application of amino acid solution ([2]; listed as glutamic acid): no odor was detected |
| NCC(=O)O [Glycine, glycine] | Different | Smell disappeared | No smell | Smell after application of amino acid solution ([2]; listed as glycine): no odor was detected |
| N[C@@H](Cc1c[nH]cn1)C(=O)O [Histidine, histidine] | Different | – | No smell | – |
| CC[C@H](C)[C@H](N)C(=O)O [Isoleucine, isoleucine] | substantially the same | Smell disappeared | – | Smell after application of amino acid solution ([2]; listed as isoleucine): no odor was detected |
| CC(C)C[C@H](N)C(=O)O [Leucine, leucine] | substantially the same | Smell disappeared | – | Smell after application of amino acid solution ([2]; listed as leucine): no odor was detected |
| NCCCC[C@H](N)C(=O)O [Lysine, lysine] | Different | – | – | – |
| CSCC[C@H](N)C(=O)O [Methionine, methionine] | substantially the same | Smell disappeared | – | Smell after application of amino acid solution ([2]; listed as methionine): no odor was detected |
| N[C@@H](Cc1ccccc1)C(=O)O [Phenylalanine, phenylalanine] | Different | – | – | – |
| O=C(O)[C@@H]1CCCN1 [Proline, proline] | Different | Smell disappeared | No smell | Odor after irradiation ([1]; 3 mL aqueous solution in petri dish, UV peak 222 nm, 3.8 mW/cm^2, 30 seconds, 8 cm from light source): Smell like lysine; Smell after application of amino acid solution ([2]; listed as proline): no odor was detected |
| N[C@@H](CO)C(=O)O [Serine, serine] | Different | Smell disappeared | No smell | Smell after application of amino acid solution ([2]; listed as serine): no odor was detected |
| C[C@@H](O)[C@H](N)C(=O)O [Threonine, threonine] | Different | – | No smell | – |
| N[C@@H](Cc1ccc(O)cc1)C(=O)O [Tyrosine, tyrosine] | Different | – | No smell | – |
| CC(C)[C@H](N)C(=O)O [Valine, valine] | substantially the same | Smell disappeared | – | Smell after application of amino acid solution ([2]; listed as valine): no odor was detected |
